According to patent publication US6573041B2, “Neuronal cell model and methods of use thereof” (priority 2000, dated 2003):

System: HSV-2 strain 333 quiescently infected ND-PC12 (QIF-PC12) cell cultures
Assay: Induction of HSV-2 from QIF-PC12 cell cultures; virus production by direct plaque assay of supernatants on Vero cells
Assay type: cell-based
Settings: for cultures activating virus in response to forskolin: Vero cocultivation day 12 p.i.
Method: For morphologic differentiation, PC12 cells were maintained in RPMI 1640 supplemented 0.1% bovine serum albumin, fraction V (BSA) and 50 ng/ml of 2.5S mouse nerve growth nerve factor (NGF) (Becton Dickinson) (maintenance media) throughout the studies, unless indicated, beginning on the day of plating. PC12 were plated, following two rinses with RPMI 1640 containing 0.1% BSA and dissociation by passage through a 22-gauge needle, in 12-well tissue culture dishes (Bector Dickinson Labware, Franklin Lakes, N.J., USA) coated with rat tail collagen type 1 (Bector Dickinson) at 1.1×10^5 cells/well in maintenance media. Collagen was applied as recommended by the supplier. Following 4 days of differentiation in maintenance media, cultures were maintained in RPMI 1640 supplemented with 10% horse serum (heat-inactivated) and 5% FBS, and 50 ng/ml NGF for 2 days. The following day cultures received maintenance media supplemented with 100 μM acycloguanosine (ACV) when indicated, purchased from Sigma (St. Louis, Mo., USA). Morphologic differentiation was confirmed by microscopic visualization of dendritic processes. Media was changed every 2 to 3 days unless indicated.
ND-PC12 cells were infected in a volume of 0.4 ml/well in 12-well plates without agitation at the indicated multiplicity of infection (MOI) overnight at 37° C. When used, ACV was maintained in the medium from 1 day prior to infection 8 days post-infection (p.i.). After ACV withdrawal, a quiescent state (i.e., free of detectable infectious virus in culture supernatants) was maintained for at least 7 days prior to induction. At the indicated times, Vero cells were trypsinized, washed twice with RPMI and introduced into the QIF-PC12 cell cultures at a ratio of 1:1 in maintenance media.
HSV QIF-PC12 cells, that were free of detectable infectious virus, were subjected to heat stress (43° C. for 3 h in an incubator), or maintenance media supplemented with or without 50 μM forskolin (Sigma) as previously described (Danaher et al, 1999a,b). Virus production was determined using 25% volume of supernatants from infected PC12 cultures in a direct plaque assay (DPA) on monolayers of Vero cells as previously described (Miller and Smith, 1991). Cultures were subsequently replenished with fresh maintenance media.
Based on these findings, forskolin and HS induced HSV-2 reactivation from QIF-PC12 cell cultures that were cocultivated with Vero cells was analyzed in more detail. QIF-PC12 cell cultures were established with strain 333 at MOI of 10 as described in the Materials and methods using transient ACV treatment. Cultures were cocultivated with Vero cells at a ratio of 1:1 three days before induction with forskolin or HS (day 15 p.i.). Virus production was monitored from day 10 through 23 p.i. Prior to induction, HSV-2 was detected infrequently (2.8%; 1/36) in cocultivated cultures. The 35 cultures that were not shedding virus were used in induction assays. Following induction treatment (FIG. 1), virus was detected in 90 to 100% of HS and forskolin induced cocultivated cultures, and 8.3% (1/12) of mock-induced cocultivated cultures.
To assess this, QIF-PC12 cell cultures were established with HSV-2 as described above. Cultures were cocultivated with Vero cells at a ratio of 1:1 within 10 days of AC withdrawal. Induction was performed with forskolin on day 30 p.i. Cultures were monitored for virus production using culture supernatants. Over the 3 week period between ACV withdrawal and induction, 71% (17/24) of the HSV-2 infected culture maintained quiescence. HSV-2 was produced from 100% (8/8) of forskolin induced cultures and 0% (0/9) of mock induced cultures by 8 days post-induction (data not shown).
Next, it was determined whether the efficiency of HSV-2 activation from quiescence was MOI-dependent. QIF-PC12 cell cultures were established with HSV-2 strain 333 at MOIs of 3 and 30 and cocultivated with Vero cells at a ratio of 1:1 on day 12 p.i. as above. […]

C=C[C@@]1(C)CC(=O)[C@]2(O)[C@@]3(C)[C@@H](O)CCC(C)(C)[C@@H]3[C@H](O)[C@H](OC(C)=O)[C@@]2(C)O1 [forskolin]
cultures activating virus in response to forskolin (50 μM forskolin day 15 p.i., MOI of 3, established with ACV, 9/11 by day 7): 82%
cultures activating virus in response to forskolin (50 μM forskolin day 15 p.i., MOI of 30, established with ACV, 12/12 by day 6): 100%
cultures producing HSV-2 after forskolin induction (established without ACV, MOI of 3, 50 μM forskolin day 15 p.i., by day 6 post-induction, 10/11 cultures): 91%
cultures from which virus was recovered after forskolin induction (established without ACV, MOI of 3, previously mock induced non-productive cultures, forskolin induced on day 30 p.i., 4/4 cultures): 100%
forskolin induced reactivation (cultures) (established without ACV, MOI of 30, 50 μM forskolin day 15 p.i., 9/10 cultures): 90%
cultures producing HSV-2 after forskolin induction (forskolin on day 30 p.i., established with ACV, Vero cocultivation, by 8 days post-induction, 8/8 cultures): 100%
